In patent publication US9975876B2, “2-pyridyloxy-3-ester-4-ether orexin receptor antagonists” (MERCK SHARP & DOHME CORP., priority 2013, dated 2018):

Columns and labels:
[1] = target: human orexin-2 receptor (Homo sapiens (Human), UniProt O43614); test: FLIPR Ca2+ flux assay, orexin-2 receptor antagonism; format: cell-based; settings: CHO cells; agonist 70 pM Ala-6,12 human orexin-A; read-out: hOX2R FLIPR IC50
Method: In a typical experiment the OX1 and OX2 receptor antagonistic activity of the compounds of the present invention was determined in accordance with the following experimental method. For intracellular calcium measurements, Chinese hamster ovary (CHO) cells expressing the rat orexin-1 receptor or the human orexin-2 receptor, are grown in Iscove's modified DMEM containing 2 mM L-glutamine, […], 1% hypoxanthine-thymidine supplement, 100 U/ml penicillin, 100 μg/ml streptomycin and 10% heat-inactivated fetal calf serum (FCS). The cells are seeded at 20,000 cells/well into Becton-Dickinson black 384-well clear bottom sterile plates coated with poly-D-lysine. All reagents were from GIBCO-Invitrogen Corp. The seeded plates are incubated overnight at 37° C. and 5% CO2. Ala-6,12 human orexin-A as the agonist is prepared as a 1 mM stock solution in 1% bovine serum albumin (BSA) and diluted in assay buffer (HBSS containing 20 mM HEPES, 0.1% BSA and 2.5 mM probenecid, pH7.4) for use in the assay at a final concentration of 70 pM. Test compounds are prepared as 10 mM stock solution in DMSO, then diluted in 384-well plates, first in DMSO, then assay buffer. On the day of the assay, cells are washed 3 times with 100 μl assay buffer and then incubated for 60 min (37° C., 5% CO2) in 60 μl assay buffer containing 1 μM Fluo-4AM ester, 0.02% pluronic acid, and 1% BSA. The dye loading solution is then aspirated and cells are washed 3 times with 100 μl assay buffer. 30 μl of that same buffer is left in each well. Within the Fluorescent Imaging Plate Reader (FLIPR, Molecular Devices), test compounds are added to the plate in a volume of 25 μl, incubated for 5 min and finally 25 μl of agonist is added. Fluorescence is measured for each well at 1 second intervals for 5 minutes and the height of each fluorescence peak is compared to the height of the fluorescence peak induced by 70 pM Ala-6,12 orexin-A with buffer in place of antagonist. […] The intrinsic orexin receptor antagonist activity of a compound which may be used in the present invention may be determined by these assays.

[2] = target: hOX1R (Homo sapiens, UniProt O43613); test: FLIPR Ca2+ flux assay, orexin-1 receptor antagonism; format: cell-based; settings: CHO cells; agonist 70 pM Ala-6,12 human orexin-A

Chain of human orexin-2 receptor (O43614 whole entry): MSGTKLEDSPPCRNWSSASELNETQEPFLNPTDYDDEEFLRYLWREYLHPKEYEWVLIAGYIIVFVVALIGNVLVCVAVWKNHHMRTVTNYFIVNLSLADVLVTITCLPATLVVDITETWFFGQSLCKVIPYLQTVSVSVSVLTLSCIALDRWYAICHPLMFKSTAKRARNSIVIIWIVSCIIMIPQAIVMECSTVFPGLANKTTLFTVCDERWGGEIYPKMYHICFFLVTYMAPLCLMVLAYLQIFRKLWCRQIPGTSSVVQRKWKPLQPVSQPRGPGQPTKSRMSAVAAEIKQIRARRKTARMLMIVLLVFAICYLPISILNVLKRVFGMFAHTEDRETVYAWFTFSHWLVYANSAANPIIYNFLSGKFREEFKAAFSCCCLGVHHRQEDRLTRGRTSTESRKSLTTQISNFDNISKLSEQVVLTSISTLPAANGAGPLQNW

Row | Structure (SMILES) | IC50 [1] | IC50 [2]
1 | COC(=O)c1c(OC)ccnc1O[C@@H]1CC[C@@H](C)N(C(=O)c2cccc(F)c2-c2noc(C)n2)C1 [Example 11, methyl 2-{[(3R,6R)-1-{[3-fluoro-2-(5-methyl-1,2,4-oxadiazol-3-yl)phenyl]carbonyl}-6-methylpiperidin-3-yl]oxy}-4-methoxypyridine-3-carboxylate] | 0.0318 µM | 2.27 µM
2 | COC(=O)c1c(OC)ccnc1O[C@@H]1CC[C@@H](C)N(C(=O)c2cccc(F)c2-c2nc(C)no2)C1 [Example 18, methyl 2-{[(3R,6R)-1-{[3-fluoro-2-(3-methyl-1,2,4-oxadiazol-5-yl)phenyl]carbonyl}-6-methylpiperidin-3-yl]oxy}-4-methoxypyridine-3-carboxylate] | 0.0395 µM | 0.932 µM
3 | COC(=O)c1c(OC)cccc1O[C@@H]1CC[C@@H](C)N(C(=O)c2ccsc2-n2nccn2)C1 [Example 32, methyl 2-methoxy-6-{[(3R,6R)-6-methyl-1-{[2-(2H-1,2,3-triazol-2-yl)thiophen-3-yl]carbonyl}piperidin-3-yl]oxy}benzoate] | 0.061 µM | > 10 µM
4 | COC(=O)c1c(OC)ccnc1O[C@@H]1CC[C@@H](C)N(C(=O)c2ccc(OC)cc2-n2nccn2)C1 [Example 15, methyl 4-methoxy-2-{[(3R,6R)-1-{[4-methoxy-2-(2H-1,2,3-triazol-2-yl)phenyl]carbonyl}-6-methylpiperidin-3-yl]oxy}pyridine-3-carboxylate] | 0.051 µM | 10 µM
5 | COC(=O)c1c(OC)ccnc1O[C@@H]1CC[C@@H](C)N(C(=O)c2ccccc2-n2nccn2)C1 [Example 1, Methyl 4-methoxy-2-{[(3R,6R)-6-methyl-1-{[2-(2H-1,2,3-triazol-2-yl)phenyl]carbonyl}piperidin-3-yl]oxy}pyridine-3-carboxylate] | 0.033 µM | 1.34 µM
6 | COC(=O)c1c(OC)ccnc1O[C@@H]1CC[C@@H](C)N(C(=O)c2ccccc2-c2ncccn2)C1 [Example 19] | 0.114 µM | 1.87 µM
7 | COC(=O)c1c(OC)ccnc1O[C@@H]1CC[C@@H](C)N(C(=O)c2c(F)cccc2-c2noc(C)n2)C1 [Example 8, methyl 2-{[(3R,6R)-1-{[2-fluoro-6-(5-methyl-1,2,4-oxadiazol-3-yl)phenyl]carbonyl}-6-methylpiperidin-3-yl]oxy}-4-methoxypyridine-3-carboxylate] | 0.0711 µM | 10 µM
8 | CCOC(=O)c1c(OC)ccnc1O[C@@H]1CC[C@@H](C)N(C(=O)c2cccc(F)c2-n2nccn2)C1 [Example 26] | 0.0396 µM | 2.79 µM
9 | COC(=O)c1c(OC)ccnc1O[C@@H]1CC[C@@H](C)N(C(=O)c2ccc(OC)nc2-n2nccn2)C1 [Example 17, methyl 4-methoxy-2-{[(3R,6R)-1-{[6-methoxy-2-(2H-1,2,3-triazol-2-yl)pyridin-3-yl]carbonyl}-6-methylpiperidin-3-yl]oxy}pyridine-3-carboxylate] | 0.052 µM | 10 µM
10 | COC(=O)c1c(OC)ccnc1O[C@@H]1CC[C@@H](C)N(C(=O)c2c(F)cccc2-n2nccn2)C1 [Example 6, methyl 2-{[(3R,6R)-1-{[2-fluoro-6-(2H-1,2,3-triazol-2-yl)phenyl]carbonyl}-6-methylpiperidin-3-yl]oxy}-4-methoxypyridine-3-carboxylate] | 0.0829 µM | 2.31 µM
11 | COC(=O)c1c(OC)ccnc1O[C@@H]1CC[C@@H](C)N(C(=O)c2cc(F)ccc2-c2noc(C)n2)C1 [Example 9] | 0.0367 µM | 1.5 µM
12 | CCOC(=O)c1c(OCC)ccnc1O[C@@H]1CC[C@@H](C)N(C(=O)c2ccccc2-n2ncnn2)C1 [Example 28, Ethyl 4-ethoxy-2-{[(3R,6R)-6-methyl-1-{[2-(2H-tetrazol-2-yl)phenyl]carbonyl}piperidin-3-yl]oxy}pyridine-3-carboxylate] | 0.018 µM | 4.13 µM
13 | COC(=O)c1c(OC)ccnc1O[C@@H]1CC[C@@H](C)N(C(=O)c2ccc(F)cc2-n2nccn2)C1 [Example 4, methyl 2-{[(3R,6R)-1-{[4-fluoro-2-(2H-1,2,3-triazol-2-yl)phenyl]carbonyl}-6-methylpiperidin-3-yl]oxy}-4-methoxypyridine-3-carboxylate] | 0.764 µM | 3.2 µM
14 | COC(=O)c1c(OC)ccnc1O[C@@H]1CC[C@@H](C)N(C(=O)c2ccc(F)cc2-c2noc(C)n2)C1 [Example 10, methyl 2-{[(3R,6R)-1-{[4-fluoro-2-(5-methyl-1,2,4-oxadiazol-3-yl)phenyl]carbonyl}-6-methylpiperidin-3-yl]oxy}-4-methoxypyridine-3-carboxylate] | 0.0587 µM | 10 µM
15 | COC(=O)c1c(OC)cccc1O[C@@H]1CC[C@@H](C)N(C(=O)c2ccccc2-n2ncnn2)C1 [Example 33, methyl 2-methoxy-6-{[(3R,6R)-6-methyl-1-{[2-(2H-tetrazol-2-yl)phenyl]carbonyl}piperidin-3-yl]oxy}bcnzoate] | 0.202 µM | > 10 µM
16 | COC(=O)c1c(OC)ccnc1O[C@@H]1CC[C@@H](C)N(C(=O)c2ccc(Cl)cc2-n2nccn2)C1 [Example 3] | 0.0336 µM | 1.42 µM
17 | COC(=O)c1c(OC)cccc1O[C@@H]1CC[C@@H](C)N(C(=O)c2ccccc2-n2nccn2)C1 [Example 31, Methyl 2-methoxy-6-{[(3R,6R)-6-methyl-1-{[2-(2H-1,2,3-triazol-2-yl)phenyl]carbonyl}piperidin-3-yl]oxy}benzoate] | 0.025 µM | > 10 µM
18 | COC(=O)c1c(OC)ccnc1O[C@@H]1CC[C@@H](C)N(C(=O)c2cc(F)ccc2-c2nc(C)no2)C1 [Example 13, methyl 2-{[(3R,6R)-1-{[5-fluoro-2-(3-methyl-1,2,4-oxadiazol-5-yl)phenyl]carbonyl}-6-methylpiperidin-3-yl]oxy}-4-methoxypyridine-3-carboxylate] | 0.0346 µM | 1.16 µM
19 | COC(=O)c1c(OC)cccc1O[C@@H]1CC[C@@H](C)N(C(=O)c2ccccc2-c2ncccn2)C1 [Example 35, methyl 2-methoxy-6-({(3R,6R)-6-methyl-1-[(2-pyrimidin-2-ylphenyl)carbonyl]piperidin-3-yl}oxy)benzoate] | 0.035 µM | > 10 µM
